Assay results from patent publication US20110003767A1, “Inhibitors of Acetyl-CoA Carboxylase for Treatment of Neuronal Hypometabolism” (NEUERA PHARMACEUTICALS, INC., priority 2007, published 2011).
Values after ≈ are worked out from the molar mass of the structure shown. “Also recorded” adds a separate entry of the source. Read-outs that look alike come from different tables or passages of the source.

Tests used:
[1] = test system: plasma beta-hydroxybutyrate (BHB); assay: Mouse pharmacokinetic (PK) study of AC-0417-9: plasma BHB after oral dosing; type: in vivo; conditions: single po dose of 3 g/kg
Protocol: Purpose: Determine blood levels of ketone bodies after oral dosing of AC-0417-9 (3,3-Dimethylhexanoate, monoglyceride) at different time points in the mouse. Animals: 12 ICR male mice 6 to 7 weeks old were used. Each mouse weighed between 20-30 grams. General Study Design: Animals (housed 3/cage) were acclimated for at least 3 days prior to dosing. Mice were given a single po dose of 3 g/kg. Animals were anesthetized for blood collection at the times 0.5, 1, 2 and 3 hours. Whole blood (˜0.4 mls) was collected via cardiac puncture and collected into sodium heparin (Na Heparin, 1:9 ratio) anticoagulant. Blood was centrifuged for 8 minutes at 13,000 rpm to isolate plasma. The plasma was transferred into pre-labeled, color-coded eppendorf tubes and frozen at −70° C. […] Plasma levels of beta-hydroxybutyrate (BHB) were determined using a beta-hydroxybutyrate detection kit following manufacturer's directions (StanBio Inc.). Materials: Compound, mouse gavage needles, vehicle, Isoflurane, 1 cc syringes w/26 g needles for blood collection, eppendorf tubes for blood collection, eppendorf tubes for plasma storage, centrifuge, container for sample storage, container for plasma shipment w/dry ice. AC-0417-9 is a clear liquid, 100% active compound by weight. […] Levels of BHB continued to rise during the 3 hour time period with highest levels present at the 3 hour time point.

[2] = test system: plasma beta-hydroxybutyrate (BHB); assay: Mouse pharmacokinetic (PK) study: plasma BHB after oral (po) and intraperitoneal (ip) dosing of TOFA; type: in vivo; conditions: for Mean BHB levels: mouse plasma
Protocol: (§1) Purpose: Determine blood levels of ketone bodies after oral (po) and intraperitoneal (ip) dosing of TOFA at different time points in the mouse. Animals: 75 ICR male mice 6 to 7 weeks old were used. Each mouse weighed between 20-30 grams. General Study Design: Animals (housed 3/cage) were acclimated for at least 3 days prior to dosing. Mice were given either a single po dose (ranging from 0.5 mg/kg, to 5 mg/kg) of compound, or a single ip dose (1 mg/kg). Animals were anesthetized for blood collection at the times 0.5, 1, 2 and 3 hours. Whole blood (˜0.4 mls) was collected via cardiac puncture and collected into sodium heparin (Na Heparin, 1:9 ratio) anticoagulant. Blood was centrifuged for 8 minutes at 13,000 rpm to isolate plasma. The plasma was transferred into pre-labeled, color-coded eppendorf tubes and frozen at −70° C. […] Plasma levels of beta-hydroxybutyrate (BHB) were determined using a beta-hydroxybutyrate detection kit following manufacturer's directions (StanBio Inc.). Materials: Compound, mouse gavage needles, vehicle, Isoflurane, 51 1 cc syringes w/26 g needles for blood collection, 63 eppendorf tubes for blood collection, 63 eppendorf tubes for plasma storage, centrifuge, container for sample storage, container for plasma shipment w/dry ice. AC-8632 (5-(tetradecyloxy)-2-furan-carboxylic acid (TOFA)) is a white crystalline solid, 100% active compound by weight. It is insoluble in aqueous solutions. It is soluble in ethanol (1 mg/ml), DMSO (2 mg/ml) and DMF (10 mg/ml). For maximum solubility in aqueous buffers, AC-8632 should first be dissolved in DMF and then diluted with the aqueous buffer of choice. AC-8632 was solubilized at a concentration of 0.5 mg/ml in a 1:1 solution of DMF::PBS (pH 7.2). For ip treatment, AC-8632 was mixed with DMSO at 2 mg/ml. Results: AC-8632 (TOFA) elevated serum BHB levels at each dose from 0.5 mg-kg to 5 mg/kg. Levels of BHB continued to rise during the 3 hour time period with highest levels present at the 3 hour time point. […] Both po and ip dosing led to elevation of plasma BHB at the 3 hour time point.

[3] = Solubility of AC-8632; type: physicochemical; conditions: for solubility: organic solvent or mixture
Protocol: as §1

[4] = test system: MPTP lesioned mice; assay: Neuroprotective effects of an ACC inhibitor in MPTP lesioned mice; type: in vivo; conditions: MPTP lesioned C57BL6 mice, oral gavage 0.001-5 mg/kg/day
Protocol: Neuroprotective effects of an ACC inhibitor in MPTP lesioned mice. 1-methyl-4-phenyl-1,2,3,6-tetrahydropyridine (MPTP), blocks complex I (NADH-ubiquinone oxidoreductase) of the mitochondrial electron transport chain, and causes typical symptoms of Parkinson's disease (PD) and the loss of dopaminergic neurons. C57BL6 mice receive daily orally gavage of CP-610431 at doses ranging from 0.001-5 mg/kg/day for seven days before they are lesioned with MPTP. During the 7 days of MPTP treatment animals will continue treatment with compound 1 or with a placebo. At the end of seven days animals are tested for behavioral effects of MPTP treatment and histopathology is performed.
Three groups of 10 animals are used for this experiment. Group 1 is treated with CP-610431 and lesioned with MPTP, Group 2 is treated with placebo and lesioned with MPTP, and Group 3 is treated with placebo and sham lesioned. After seven days of MPTP treatment behavior and motor skills are tested on all mice. Three tests are used to assess protective behavioral effects: Open Field behavior, Beam Walking test, and Rota Rod test. […]
Dopamine histopathology is immunohistochemically evaluated comparing tyrosine-hydroxylase-positive (TH+) neurons in the substantia nigra density of TH+ nerve terminals in the striatum on the lesioned side of drug treated and control animals. […]

[5] = test system: Acetyl-CoA carboxylase (ACC), CT (carboxyltranferase) reaction; conditions: cited from earlier work

## CCCC(C)(C)CC(=O)OCC(O)CO (stereo not shown) [AC-0417-9, 3,3-Dimethylhexanoate, monoglyceride]
[1]
  serum BHB levels (effect in words): elevation; also recorded: elevate
[1]; 3 hour time period
  time point of highest BHB levels: 3 h

## CCCCCCCCCCCCCCOc1ccc(C(=O)O)o1 [AC-8632, 5-(tetradecyloxy)-2-furan-carboxylic acid]
[2]; 0.5 mg/kg po, 0 hr
  Mean BHB levels: 0.1353 mM
[2]; 0.5 mg/kg po, 0.5 hr
  Mean BHB levels: 0.2087 mM
[2]; 0.5 mg/kg po, 1 hr
  Mean BHB levels: 0.236 mM
[2]; 0.5 mg/kg po, 2 hr
  Mean BHB levels: 0.2427 mM
[2]; 0.5 mg/kg po, 3 hr
  Mean BHB levels: 0.3473 mM
[2]; 1 mg/kg ip, 0 hr
  Mean BHB levels: 0.1353 mM
[2]; 1 mg/kg ip, 0.5 hr
  Mean BHB levels: 0.1723 mM
[2]; 1 mg/kg ip, 1 hr
  Mean BHB levels: 0.177 mM
[2]; 1 mg/kg ip, 2 hr
  Mean BHB levels: 0.209 mM
[2]; 1 mg/kg ip, 3 hr
  Mean BHB levels: 0.2163 mM
[2]; 1 mg/kg po, 0 hr
  Mean BHB levels: 0.1353 mM
[2]; 1 mg/kg po, 0.5 hr
  Mean BHB levels: 0.2093 mM
[2]; 1 mg/kg po, 1 hr
  Mean BHB levels: 0.2187 mM
[2]; 1 mg/kg po, 2 hr
  Mean BHB levels: 0.2827 mM
[2]; 1 mg/kg po, 3 hr
  Mean BHB levels: 0.2973 mM
[2]; 2 mg/kg po, 0 hr
  Mean BHB levels: 0.1353 mM
[2]; 2 mg/kg po, 0.5 hr
  Mean BHB levels: 0.2153 mM
[2]; 2 mg/kg po, 1 hr
  Mean BHB levels: 0.1497 mM
[2]; 2 mg/kg po, 2 hr
  Mean BHB levels: 0.2127 mM
[2]; 2 mg/kg po, 3 hr
  Mean BHB levels: 0.339 mM
[2]; 5 mg/kg po, 0 hr
  Mean BHB levels: 0.1353 mM
[2]; 5 mg/kg po, 0.5 hr
  Mean BHB levels: 0.106 mM
[2]; 5 mg/kg po, 1 hr
  Mean BHB levels: 0.111 mM
[2]; 5 mg/kg po, 2 hr
  Mean BHB levels: 0.323 mM
[2]; 5 mg/kg po, 3 hr
  Mean BHB levels: 0.259 mM
[2]; mouse, 0.5-5 mg/kg po, 1 mg/kg ip
  difference of BHB levels by dose or by route of administration: did not differ significantly
[2]; mouse, 3 hour time period, po and ip
  time point of highest BHB levels: 3 h
[2]; mouse, each dose from 0.5 to 5 mg/kg
  serum BHB levels (effect in words): elevated
[3]; DMF, read-out: solubility in DMF
  solubility: 10000 µg/mL (≈ 30.8 mM)
[3]; DMSO, read-out: solubility in DMSO
  solubility: 2000 µg/mL (≈ 6.16 mM)
[3]; aqueous solutions
  solubility in aqueous solutions: insoluble
[3]; ethanol, read-out: solubility in ethanol
  solubility: 1000 µg/mL (≈ 3.08 mM)

## CCN(CC)C(=O)[C@@H]1CCCN(C2CCN(C(=O)c3c4ccccc4cc4ccccc34)CC2)C1 [CP-610431, R-1′-(anthracene-9-carbonyl)-N,N-diethyl-1,4′-bipiperidine-3-carboxamide]
[4]
  behavior and motor skills (Open Field, Beam Walking, Rota Rod): Improved
[4]; substantia nigra
  number of TH+ neurons: Increased

## O=C(c1c2ccccc2cc2ccccc12)N1CCC(N2CCC[C@@H](C(=O)N3CCOCC3)C2)CC1 [CP-640186, [(3R)-1-[1-(anthracene-9-carbonyl)piperidin-4-yl]piperidin-3-yl]-morpholin-4-ylmethanone]
[5]
  inhibition of the CT reaction of ACC (in words): potent, reversible, isozyme-nonselective inhibitors
